Literature values in patent publication US20100323998A1, “TOPICAL COMPOSITION CONTAINING THE COMBINATION OF MUPIROCIN AND BECLOMETHASONE” (Glenmark Pharmaceuticals Ltd., priority 2007, published 2010).

Test system: Gram-positive and Gram-negative bacteria
Details: in vitro

With `C/C(=C\C(=O)OCCCCCCCCC(=O)O)C[C@@H]1OCC(C[C@@H]2O[C@H]2[C@@H](C)[C@H](C)O)[C@@H](O)[C@H]1O` (stereo partly drawn) [Mupirocin, (E)-(2S,3R,4R,5S)-5-[(2S,3S,4S,5S)-2,3-Epoxy-5-hydroxy-4-methylhexyl]tetrahydro-3,4-dihydroxy-β-methyl-2H-pyran-2-crotonic acid, ester with 9-hydroxynonanoic acid] as the compound, how does the “Growth of Gram-positive and Gram-negative bacteria” value read?
Its value is “inhibits the growth”.
